Tested on: normal human bronchial epithelial cells (NHBE)
Experiment: Cumulative dose kinetic responses of intracellular Ca++, Cl- and cell membrane potential (simultaneous Fluo-3, di-MEQ and RH421 fluorescence photon counting)
Assay type: cell-based
Protocol: Normal human bronchial/tracheal epithelial cells (NHBE, Clonetics) were cultured in T-25 cm^2 flasks at 37° C., 5% CO2 using Bronchial/Tracheal Epithelial Cell Growth Medium containing Retinoic Acid (BEGM, w/RA, Clonetics). When the NHBE cells in the T-25 flasks reached 60%-80% confluency, the cells were passaged using a seeding density of 3500 cells/cm^2. A portion of the cells was passaged in T-25 flasks again while the remaining cells were seeded on UV-exposed Vitrogen (pH balanced 1:1 BEGM to Vitrogen) coated 4-well cover glass chambers (LabTek II). NHBE cells normally attached to the collagen-coated cover glass chamber within 24 hrs. Prior to these cells reaching 60% confluency, they were used for all the experiments described below. Cells used in all the experiments were either 2nd or 3rd passage cells maintained in Bronchial/Tracheal Epithelial Cell Growth Medium with Retinoic Acid (BEGM, w/RA, Clonetics).
The following procedures for loading the cells with fluorophore were employed. Balanced Hank's (BH) solution without phenol red was used as the medium for all the fluorophore preparations and cell washings unless stated otherwise. Fluo-3 (a Ca^++ indicator), di-MEQ (a Cl^− indicator) and RH421 (a cell membrane potential indicator) were loaded into cells sequentially at room temperature. Cells were first incubated with 8 μM Fluo-3 solution for 60 minutes, followed by incubating with 50 μM di-MEQ for 5 minutes and then finally with 10 μM RH421 for 5 minutes. Extraneous dyes were washed with BH solution between each fluorophore loading procedure. The cells were allowed to stabilize in BEGM for a minimum of 15 minutes at room temperature prior to the beginning of each experiment.
Experiments were performed at room temperature. All tested agents were prepared in Balanced Hank's Solution. One of the wells of the cover glass chamber was placed on the stage of the inverted microscope and the cells loaded with the fluorophores were visually focused with the violet, green and orange emitted light from the cells approximately in the same focal plane. At a sampling frequency of 100 Hz, cells with the following photon counts were chosen for the study: 20 to 50 counts per channel (cpc) for Ca^++ fluorescence, 70 to 200 cpc for Cl^− fluorescence, and 20 to 50 cpc for cell membrane potential fluorescence. After establishing a 2 minute baseline, increasing doses of the agent of interest were added topically to the wells 2 minutes apart. At the end of each experiment, a toxic dose of the agent of interest was added to the sample to either shrink or swell the cells beyond their normal cell volume regulatory range. This caused the fluorescence signals of each of these fluorophores to reach either maximum or minimum values. […] Background fluorescence was recorded using a cell free area of the same well. If the signal to background ratio was not higher than a factor of 10, the experiments were also discarded.
The kinetic responses were measured as photon counts acquired in 10 ms intervals over>800 seconds. […] The correlation of these events and their kinetics, observations that can only be made with the present invention, provides unique insights into the mechanism by which Glibenclamide affects the cells.
UTP is a ligand to the p2Y receptor. The kinetic responses were measured as photon counts acquired in 10 ms intervals over >800 seconds.
Hyperpolarization of the cell membrane can also be induced via different cellular mechanisms such as by decreasing intracellular potassium. […] The kinetic responses were measured as photon counts acquired in 10 ms intervals over >900 seconds. It should be noted that the relative potencies of these agents in terms of the mechanisms for eliciting the temporal responses, the duration of the agent actions and the magnitude of hyperpolarization of the cell membrane can be compared and monitored for the first time. […]

Structure (SMILES)	intracellular Ca++ response (500 μM)	intracellular Cl- response (500 μM)	membrane potential response (500 μM)	cell membrane potential response (Glibenclamide 25 μM to 500 μM cumulative)	[Cl-]i response (Glibenclamide 25 μM to 500 μM cumulative, MEQ fluorescence inversely proportional to [Cl-]i)	intracellular Ca++ response (concentrations below 500 μM)	intracellular Cl- response (concentrations below 500 μM)	membrane potential response (concentrations below 500 μM)	intracellular Cl- response (0.1 mM and 1 mM)	membrane potential response (0.1 mM and 1 mM)	intracellular Ca++ response (0.1 mM and 1 mM, increase followed by a measurable rate of decline)
COc1ccc(Cl)cc1C(=O)NCCc1ccc(S(=O)(=O)NC(=O)NC2CCCCC2)cc1 [Glibenclamide]	rapid increase	simultaneous drop	simultaneous increase	hyperpolarized the cell membrane	increased	little affected	declines as Glibenclamide concentration increases	little affected			
O=c1ccn([C@@H]2O[C@H](COP(=O)(O)OP(=O)(O)OP(=O)(O)O)[C@@H](O)[C@H]2O)c(=O)[nH]1 [UTP, uridine triphosphate]									essentially no changes	essentially no changes	rapid increase
